Experimental data taken from PMC8095314 (ChemistryOpen, 2021).
Where “and” joins values, the source holds several entries; their conditions need not be identical. Equal values may be shown once.

How the values were obtained:
[1] = molecular target: T1, recombinant human CA XII (Homo sapiens, UniProt O43570); type: binding; conditions: from FTSA Kd
[2] = molecular target: recombinant human CA II (Homo sapiens, UniProt P00918); conditions: read-out: Kd CA II (FTSA); observed, pH 7.0, 37 °C; cited from earlier work
[3] = molecular target: T1, recombinant human CA XII; conditions: read-out: Kd CA XII (FTSA); observed, pH 7.0, 37 °C; cited from earlier work
[4] = molecular target: chCA XII (Homo sapiens, UniProt P00918, A65S/F130A/I91T/L203N/N67K/V134S); assay: Fluorescent thermal shift assay
[5] = tested on: His64; assay: kinetics; conditions: cited from earlier work

T1 sequence (O43570 25-354): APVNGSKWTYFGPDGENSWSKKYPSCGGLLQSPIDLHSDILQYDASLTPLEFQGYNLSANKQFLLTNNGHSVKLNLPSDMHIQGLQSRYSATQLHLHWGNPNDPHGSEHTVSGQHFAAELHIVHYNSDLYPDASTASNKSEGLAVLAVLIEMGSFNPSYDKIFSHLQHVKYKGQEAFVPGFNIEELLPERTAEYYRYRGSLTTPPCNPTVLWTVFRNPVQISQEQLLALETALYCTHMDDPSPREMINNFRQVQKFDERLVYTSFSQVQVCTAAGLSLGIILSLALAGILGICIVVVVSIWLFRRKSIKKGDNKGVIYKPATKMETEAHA

Compound	Kd ratio CA XII/CA II [1]	Kd [2]	Kd [3]	Kd [4]	pKa [5]
NS(=O)(=O)c1ccc2ccccc2c1 [Compound 37, naphthalene‐2‐sulfonamide]	8.2	0.77 µM	6.3 µM	6.7 µM	
Carbonic anhydrase XII (CA XII) (Homo sapiens)					8.0±0.2 and 7.5±0.1
